Entries after “also recorded” stand apart in the source; their conditions may differ.
Tests used:
LSK cells = conditions: cited from earlier work
c-Kit+ cells = assay: Colony formation assay in methylcellulose with hematopoietic cytokines; type: cell-based, mice; conditions: c-Kit+ cells treated 3 days ex vivo, then methylcellulose 10-14 days
Procedure: The primary cultures are shown.
Methylcellulose culture: Sorted GFP^+ BM cells were plated in individual wells of 6-well plates (Corning) containing 550 μl 1.0% methylcellulose (Stem Cell Technologies) as previously described (Trowbridge, et al., 2006, Nature. 441:518-522). The methylcellulose was supplemented with 1% penicillin/streptomycin (Gibco; Invitrogen), 50 ng/ml SCF, 10 ng/ml IL-3, 10 ng/ml IL-6, and 3 U/ml erythropoietin. Colonies were incubated at 37° C. in humidified incubators at 5% CO2. Colony formation was scored by counting all colonies of greater than 30 viable cells after 10-14 days of culture.
To test whether progenitor cells are increased by lithium treatment, colony formation assays were performed. […] To confirm these studies, bone marrow cells were isolated from lithium treated mice and cultured in methylcellulose with hematopoietic cytokines.

Row | bone marrow morphology / architecture (LSK cells (HSCs/HPCs); treated versus control marrows) | SMILES | HSCs measured by long-term competitive repopulation assay (LSK cells; mice, Goessling et al. 2009) | overall marrow cellularity (LSK cells (HSCs/HPCs); mice treated 2 weeks, vs control) | number of LSK cells in bone marrow (LSK cells (HSCs/HPCs); mice treated 2 weeks, vs control (NaCl for lithium), FCM) | hematopoietic colony number (c-Kit+ cells) | increase in LSK cells (LSK cells; treated mice, Trowbridge et al. 2006)
1 | no observable change | O=C1Nc2cc(Br)ccc2/C1=C1/Nc2ccccc2/C1=N\O [6BIO, 6-bromo-indirubin 3′-oxime] | increases HSCs | increased marrow cellularity; also recorded: parallel increase | pronounced increase; also recorded: increased | marked increase; also recorded: increased | –
2 | – | COc1ccc(CNC(=O)Nc2ncc([N+](=O)[O-])s2)cc1 [AR-A014418] | – | – | – | marked increase; also recorded: increased | –
3 | – | Cc1c[nH]c(-c2cnc(NCCNc3ccc(C#N)cn3)nc2-c2ccc(Cl)cc2Cl)n1 [CHIR-911] | – | – | – | – | approximately 50%

Source: patent US9050315B2, “In vivo and ex vivo expansion of hematopoietic stem cells with a targeted combination of clinically tested, FDA approved drugs” (The Trustees of the University of Pennsylvania, priority 2010, dated 2015)
